These results are taken from patent US8058228B2, “Leptin peptide antagonists” (Boston Biomedical Research Institute, priority 2004, dated 2011).

In general, Ki refers to a measure of affinity in units of concentration, obtained from inhibition or displacement.

The assay relates to OB-R. The assay can be described thus: Competitive binding of 125I-human leptin to OB-R in rabbit endometrial cell lysates. The method, then:
^125I-human leptin served as ligand and LPA-2 and LPA-2Sc as competitors for the binding to OB-R in cellular extracts. All compounds were diluted in assay buffer (50 mM Tris and 100 mM NaCl, pH 8.5) to promote proper re-folding. Each assay tube contained 50 μl of cellular lysate (100 μg protein from 10^6 cells cultured for two days in basal medium), 50 μl of ^125I-human leptin (100.000 cpm), and 50 μl of LPAs (providing 10^−5-10^−14 M/tube). The tubes were incubated for 24 h at room temperature. Then, 250 μl of 1% BSA (w/v) and 500 μl of 20% polyethylene glycol (w/v) in PBS were added and the tubes were incubated for an additional 12-h period at 4° C. The tubes were centrifuged at 12.000 g for 15 min at 4° C. After careful aspiration of supernatant and complete drying of the tube-walls with filter paper, ^125I-human leptin binding in the precipitates was measured (Beckman 5000, counter). The binding of ^125I-leptin to OB-R in absence of LPAs was set at 100%, and LPA competitive binding values were expressed as percentages of total cpm. Affinity binding constants for LPAs were calculated from the competition curves.

On to “SRNVIQISNDLENLRDLLHVLAFSKS [LPA-2, 26 amino acid peptide, residues 70-95 of helix III of the human leptin molecule; leptin peptide antagonist]”, for which the “competition with 125I-leptin for binding to OB-R” value (cellular lysates of rabbit endometrial cells) is listed as “displaced”. Further, the Ki (competition with 125I-leptin, OB-R expressed by rabbit endometrial cells (rEEC and rESC), protein extracts) is approximately 60 pM.
